Results: patent publication US8071317B2, “Methods for detection of hydrophobic drugs” (Siemens Healthcare Diagnostics Inc., priority 2007, dated 2011)

Tested on: anti-sirolimus antibody
Test: Sirolimus ACMIA immunoassay: metabolite cross-reactivity in whole blood
Type: binding
Description: Testing was done using the DIMENSION® RxL analyzer, available from Dade Behring Inc., Newark Del. The instrument was employed using ACMIA immunoassay technology. The ACMIA assay method is disclosed in U.S. Pat. Nos. 7,186,518, 5,147,529, 5,128,103, 5,158,871, 4,661,408, 5,151,348, 5,302,532, 5,422,284, 5,447,870, 5,434,051, the disclosures of which are incorporated herein in their entirety). In the embodiment of the ACMIA method used herein and discussed in more detail below, competition between sirolimus analog on chrome particles and sirolimus (SIRO) in patient samples for antibody for sirolimus conjugated to an enzyme (conjugate) was utilized to determine the amount of sirolimus in the patient samples. Conjugate that binds to the sirolimus analog on chrome particles was removed by magnetic separation. The enzymatic activity from conjugate remaining in the supernatant is measured and is directly proportional to the amount of sirolimus in the patient sample. In the ACMIA assay format employed, the enzymatic activity observed when testing a sample containing no sirolimus was indicative of the amount of enzymatic activity that was not bound to active antibody (i.e., cannot bind sirolimus on chrome particles). The enzymatic activity observed when no chrome particle is present is indicative of the total amount of enzymatic activity in the conjugate. These values can be used to estimate the percent of enzymatic activity bound to active antibody.
Monoclonal anti-sirolimus antibody (Wyeth Pharmaceuticals, Cambridge Mass.) was conjugated to β-galactosidase using a standard heterobifunctional SMCC (succinimidyl trans-4-(N-maleimidylmethyl)cyclohexane-1-carboxylate) linker according to known techniques. The antibody conjugate solution contained approximately 7.5 μg/mL anti-sirolimus antibody-β-galactosidase conjugate, 30 mg/mL protease free bovine serum albumin, 0.126 mg/mL MgCl2, 0.03 mL/mL of Ethylene glycol, 35.14 mg/mL PIPES 1.5 sodium salt, 50 mg/mL NaCl and beta-gal mutein (inactivated beta-galactosidase), pH 6.5.
Sirolimus chrome particles (immunoassay solid phase) were prepared by conjugating sirolimus-C26- or -C32-CMO conjugate to DA10-Dexal-Chromium Dioxide particles using N-hydroxysuccinimide (NHS) ester and 1-ethyl-3-(3-dimethylaminopropyl)carbodiimide (EDAC) chemistry. See, for example, U.S. Pat. No. 6,231,982, the relevant disclosure of which is incorporated herein by reference. The sirolimus chrome particles are then made into sirolimus chrome particle tablets. Each sirolimus tablet contains approximately 2 mg sirolimus chrome particle slurry, 30.4 mg trehalose dihydrate and 3.6 mg CARBOWAX® 100 μm.
The principle and operation of the ACMIA assay for sirolimus were as follows: pretreatment reagent without FKE or with FKE containing organic solvent as the selective solubility agent was added to a reaction vessel on the DIMENSION® RxL analyzer. Next, 18 μL of whole blood containing sirolimus or its metabolites was added. The whole blood was sampled from a standard cup by first mixing the blood with the ultrasonic sample probe. The mixing of whole blood sample with the pretreatment solution ensured the hemolysis of the whole blood and the displacement of the protein bound sirolimus molecules from their binding sites when the tacrolimus carbamate molecules were present. Anti-sirolimus antibody-β-galactosidase conjugate (50 μL) was added next and was allowed to react with sirolimus in the sample. The chrome particles with immobilized sirolimus-CMO-DA10-Dexal were added (50 μL) and were allowed to bind the un-bound conjugate. […] The sirolimus-bound conjugate was detected by transferring the supernatant from the reaction vessel to a photometric cuvette and measuring the enzymatic rate of the conjugate in the presence of chlorophenol red-β-D-galactopyranoside (CPRG). The rate was measured bichromatically at 577 and 700 nm. […]

[1] = PT with 15 μg/mL FKE & 15% DMSO

With 11-hydroxy sirolimus the sirolimus metabolite cross-reactivity [1] was 35%, the sirolimus metabolite cross-reactivity (PT with 15 μg/mL FKE, no DMSO) was 78% and the sirolimus metabolite cross-reactivity (PT with Neither FKE Nor DMSO) was 315%.

“11-hydroxy sirolimus [11-hydroxy sirolimus (isomer of the above)]” showed a sirolimus metabolite cross-reactivity [1] of 9%, a sirolimus metabolite cross-reactivity (PT with 15 μg/mL FKE, no DMSO) of 34% and a sirolimus metabolite cross-reactivity (PT with Neither FKE Nor DMSO) of 114%.

For “27,39-O-didesmethyl (or 32,41-O-didesmethyl) sirolimus [27,39 Didesmethyl sirolimus]”, the “% Cross-Reactivity” value (Control: no organic solvent in pretreatment reagent, recovery as percent of parent sirolimus) was 180%, the “% Cross-Reactivity” value (DMSO 10% in pretreatment reagent, 2.3% in reaction mixture, 15 μg/mL FK506 ester) was 100% and the “% Cross-Reactivity” value (DMSO 15% in pretreatment reagent, 3.4% in reaction mixture, 15 μg/mL FK506 ester) was 88%. The “% Cross-Reactivity” value (Methoxypropanol 10% in pretreatment reagent, 2.3% in reaction mixture, 15 μg/mL FK506 ester) was 92%, the sirolimus metabolite cross-reactivity [1] was 88% and the sirolimus metabolite cross-reactivity (PT with 15 μg/mL FKE, no DMSO) was 165%. For the same compound, the sirolimus metabolite cross-reactivity (PT with Neither FKE Nor DMSO) was 569%.

In the case of 32-O-desmethyl sirolimus, the sirolimus metabolite cross-reactivity [1] is reported as −3%, the sirolimus metabolite cross-reactivity (PT with 15 μg/mL FKE, no DMSO) is reported as 8% and the sirolimus metabolite cross-reactivity (PT with Neither FKE Nor DMSO) is reported as 34%.

With 41-O-demethyl sirolimus the sirolimus metabolite cross-reactivity [1] was 40%, the sirolimus metabolite cross-reactivity (PT with 15 μg/mL FKE, no DMSO) was 39% and the sirolimus metabolite cross-reactivity (PT with Neither FKE Nor DMSO) was 48%.

For `CO[C@@H]1C[C@H](C[C@@H](C)[C@@H]2CC(=O)[C@H](C)/C=C(\C)[C@@H](O)[C@@H](OC)C(=O)[C@H](C)C[C@H](C)/C=C/C=C/C=C(\C)[C@@H](O)C[C@@H]3CC[C@@H](C)[C@@](O)(O3)C(=O)C(=O)N3CCCC[C@H]3C(=O)O2)CC[C@H]1O` [7-O-demethyl sirolimus], the sirolimus metabolite cross-reactivity [1] was −3%, the sirolimus metabolite cross-reactivity (PT with 15 μg/mL FKE, no DMSO) was 7% and the sirolimus metabolite cross-reactivity (PT with Neither FKE Nor DMSO) was 6%.

(N-oxide)-hydroxy sirolimus gave a sirolimus metabolite cross-reactivity [1] of 13%, a sirolimus metabolite cross-reactivity (PT with 15 μg/mL FKE, no DMSO) of 49% and a sirolimus metabolite cross-reactivity (PT with Neither FKE Nor DMSO) of 152%.
